Some test systems named below: SN12C; SF-539; IGROV-1; MOLT-4; OVCAR-8; HOP-92; COLO 205; 786-0; HOP-62; NCI-H460; CCRF-CEM; M14; NCI-H522; CAKI-1; MDA-MB-231; KM12; HT-29; HL-60; SK-MEL-28; RPMI-8226.
Holding throughout (assay): NCI tumour cell line growth inhibition, 48 h

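Test compounds were applied to cells in 96-well plates for 48 hours at 5 doses. Abbreviation: GI50, concentration required for 50% inhibition of growth.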 Calls of active or inactive are those of the source. Cut-off read from the data, not from the text of the source: active = GI50 up to about 1.1 µM and inactive = higher. Bounds are passed on as bounds.

Regarding `C=CCN1C[C@H](C)N([C@H](c2ccc(C(=O)NC(CC)CC)cc2)c2cccc(OC)c2)C[C@H]1C`, the GI50 in the test on SN12C was 36.8 µM (inactive); with SF-539, 20.4 µM (inactive); in the test on IGROV-1 it was 65.3 µM (inactive); in the test with MOLT-4 it was > 100 µM (inactive); with OVCAR-8, 62.5 µM (inactive); in the test with HOP-92, 31.7 µM (inactive). Moreover, the GI50 was 17.9 µM (inactive) in the test with COLO 205; 34.6 µM (inactive) in the test with 786-0; > 100 µM (inactive) with HOP-62; 31 µM (inactive) in the test on NCI-H460; 41.4 µM (inactive) in the test on CCRF-CEM; 17.7 µM (inactive) in the test with M14. For the same molecule, the GI50 in the test on NCI-H522 is 13.4 µM (inactive); in the test on CAKI-1, 22.6 µM (inactive); with MDA-MB-231, 28 µM (inactive); in the test on KM12, 37.7 µM (inactive); in the test on HT-29 it was 25.1 µM (inactive); in the test on HL-60, 10.9 µM (inactive).

As for `CN(C)CCNC(=O)c1cccc2c1Oc1cccc([N+](=O)[O-])c1O2`, the GI50 in the test on SN12C is 23.3 µM (inactive); in the test on SF-539 it was 18.2 µM (inactive); with IGROV-1 it was 18.9 µM (inactive); in the test on MOLT-4 it was 4.74 µM (inactive); in the test on OVCAR-8, 20.8 µM (inactive); in the test on COLO 205 it was 21.6 µM (inactive). Also, the GI50 is 19.2 µM (inactive) with 786-0; 16.1 µM (inactive) with HOP-62; 17.3 µM (inactive) in the test on NCI-H460; 18.8 µM (inactive) in the test with SK-MEL-28; 29.6 µM (inactive) in the test with CCRF-CEM; 16.2 µM (inactive) in the test on M14. Moreover, the GI50 with NCI-H522 is 16.1 µM (inactive); in the test on CAKI-1, 18.4 µM (inactive); with MDA-MB-231, 4.33 µM (inactive); in the test with KM12 it was 22.8 µM (inactive); in the test with HT-29, 15.2 µM (inactive); with HL-60, 17.1 µM (inactive).

On to `CN(C)C(=O)c1nnsc1NN=O`, for which the GI50 in the test with SN12C, with IGROV-1, with MOLT-4, in the test with OVCAR-8, in the test on HOP-92 and in the test with COLO 205 was > 100 µM (inactive) throughout. Also, the GI50 in the test with 786-0, with HOP-62, with NCI-H460, in the test on SK-MEL-28, with CCRF-CEM and with M14 was > 100 µM (inactive) each time. For the same molecule, the GI50 with NCI-H522, in the test on CAKI-1, in the test on RPMI-8226, in the test with MDA-MB-231, in the test with KM12 and in the test on HT-29 was > 100 µM (inactive) throughout. In addition, the GI50 with HL-60 was > 100 µM (inactive).

As to `CC(C)[C@]12O[C@H]1[C@@H]1O[C@]13[C@]1(O[C@H]1C[C@H]1C4=C(CC[C@@]13C)C(=O)OC4)[C@@H]2O` [TRIPTOLIDE], the GI50 in the test with SN12C was 0.00861 µM (active); with SF-539 it was 0.00745 µM (active); in the test on IGROV-1 it was 0.00713 µM (active); in the test with MOLT-4 it was 0.00764 µM (active); in the test on OVCAR-8, 0.0203 µM (active); in the test with HOP-92, 0.023 µM (active). Moreover, the GI50 is 0.00776 µM (active) in the test with COLO 205; 0.0169 µM (active) in the test with 786-0; 0.00701 µM (active) in the test with HOP-62; 0.00527 µM (active) in the test with NCI-H460; 0.00637 µM (active) in the test with SK-MEL-28; 0.011 µM (active) in the test on CCRF-CEM. Further, the GI50 with M14 was < 0.0136 µM (active); with NCI-H522, 0.00881 µM (active); with MDA-MB-231 it was 0.0145 µM (active); in the test on KM12 it was 0.0274 µM (active); in the test on HT-29, 0.0083 µM (active); with HL-60 it was 0.00667 µM (active).

Consider `CC(=O)OCC1OC(n2c(C)c(C)c(C)c(C#N)c2=S)C(OC(C)=O)C(OC(C)=O)C1OC(C)=O` (stereo unspecified), for which the GI50 with SN12C was > 100 µM (inactive); in the test with SF-539 it was 69.7 µM (inactive); with IGROV-1, > 100 µM (inactive); in the test on MOLT-4 it was > 100 µM (inactive); in the test on OVCAR-8, > 100 µM (inactive); in the test with HOP-92, 34.1 µM (inactive). Further, the GI50 with COLO 205 was > 100 µM (inactive); in the test on 786-0 it was 23.7 µM (inactive); in the test on HOP-62, 13.3 µM (inactive); with NCI-H460, > 100 µM (inactive); with SK-MEL-28 it was > 100 µM (inactive); in the test with CCRF-CEM, > 100 µM (inactive). Further, the GI50 with M14 was 44 µM (inactive); in the test with NCI-H522, 21.8 µM (inactive); in the test with CAKI-1 it was > 100 µM (inactive); in the test with MDA-MB-231, > 100 µM (inactive); with KM12, > 100 µM (inactive); in the test with HT-29, > 100 µM (inactive). For the same molecule, the GI50 with HL-60 was > 100 µM (inactive).

Take `CC(=O)OC1O[C@@H](C(C)(C)O)CC[C@@H]1[C@H]1CC[C@@]2(C)C3=C(CC[C@]12C)[C@@]1(C)C[C@@H](OC(=O)CC(C)(O)CC(=O)O)[C@H](OC(C)=O)C(C)(C)C1CC3` (stereo partly specified): the GI50 is 19.2 µM (inactive) in the test with SN12C; 19.2 µM (inactive) in the test with IGROV-1; 19.4 µM (inactive) in the test with MOLT-4; 17.1 µM (inactive) with OVCAR-8; 16.7 µM (inactive) in the test on HOP-92; 19.3 µM (inactive) in the test with 786-0. In addition, the GI50 is 18.8 µM (inactive) in the test on HOP-62; 18 µM (inactive) in the test on NCI-H460; 16.3 µM (inactive) in the test with SK-MEL-28; 20.8 µM (inactive) with CCRF-CEM; 19.5 µM (inactive) with M14; 15.8 µM (inactive) in the test on CAKI-1. Further, the GI50 in the test with RPMI-8226 is 23.3 µM (inactive); in the test with MDA-MB-231, 23 µM (inactive); with KM12, 21.9 µM (inactive); with HT-29, 20.1 µM (inactive); with HL-60 it was 24.4 µM (inactive).

For `CN(C)CCC(C(=O)C(C)(C)C)c1ccccn1` (stereo unspecified), the GI50 with SN12C, with IGROV-1, with OVCAR-8, in the test on HOP-92, in the test with COLO 205 and with 786-0 was > 100 µM (inactive) in each case. The GI50 with HOP-62, in the test with NCI-H460, in the test with SK-MEL-28, with CCRF-CEM, with M14 and with NCI-H522 was > 100 µM (inactive) throughout. Further, the GI50 in the test with CAKI-1, in the test on RPMI-8226, in the test with MDA-MB-231, in the test on KM12, with HT-29 and in the test with HL-60 was > 100 µM (inactive) each time.

Take `CN1C/C(=C\c2cccs2)C2=NC(=S)NC(c3cccs3)C2C1` (stereo unspecified): the GI50 in the test with SN12C is > 100 µM (inactive); with IGROV-1, 46.3 µM (inactive); in the test with MOLT-4 it was 19.5 µM (inactive); in the test with OVCAR-8 it was 40.7 µM (inactive); in the test with HOP-92, 33.6 µM (inactive); in the test on COLO 205, 31.8 µM (inactive). Moreover, the GI50 in the test with 786-0 is > 100 µM (inactive); in the test with HOP-62, > 100 µM (inactive); with NCI-H460, 50.6 µM (inactive); in the test on SK-MEL-28, 93.3 µM (inactive); in the test with CCRF-CEM, 19.7 µM (inactive); in the test on M14 it was 55.2 µM (inactive). Also, the GI50 in the test on NCI-H522 was 36.4 µM (inactive); in the test on CAKI-1, > 100 µM (inactive); in the test with RPMI-8226 it was 29.9 µM (inactive); in the test with MDA-MB-231 it was > 100 µM (inactive); in the test with KM12, 57 µM (inactive); in the test on HT-29 it was 68.7 µM (inactive). Moreover, in the test on HL-60, the GI50 was 2.22 µM (inactive).

For the molecule `CC(C)=CCC[C@@H](C)C1=C(O)C(=O)C(C)=C(Nc2ccccc2F)C1=O`, the GI50 in the test with SN12C was 15 µM (inactive); in the test on IGROV-1, 32.6 µM (inactive); in the test with MOLT-4 it was 5.68 µM (inactive); with OVCAR-8, 7.19 µM (inactive); in the test on HOP-92, 21.1 µM (inactive); in the test on COLO 205, 23.4 µM (inactive). Also, the GI50 in the test on 786-0 is 21.3 µM (inactive); in the test with HOP-62, 11.6 µM (inactive); in the test on NCI-H460, 12 µM (inactive); in the test on SK-MEL-28, 38.6 µM (inactive); in the test on CCRF-CEM, 2.39 µM (inactive); with M14, 16.7 µM (inactive). Also, the GI50 in the test with CAKI-1 is 16.1 µM (inactive); in the test with RPMI-8226 it was 8.26 µM (inactive); in the test on MDA-MB-231, 28.4 µM (inactive); in the test on KM12, 15.5 µM (inactive); in the test with HT-29 it was 33.3 µM (inactive); in the test with HL-60, 2.28 µM (inactive).

For the molecule `COC(=O)c1c(-c2ccc(Cl)cc2)cc2c3ccccc3n(C)c2c1C(=O)OC`, the GI50 in the test on SN12C is > 100 µM (inactive); with SF-539 it was > 100 µM (inactive); with IGROV-1, > 100 µM (inactive); in the test on MOLT-4 it was 23.1 µM (inactive); in the test with OVCAR-8, > 100 µM (inactive); in the test with HOP-92, > 100 µM (inactive). The GI50 with COLO 205 is > 100 µM (inactive); with 786-0 it was > 100 µM (inactive); in the test on HOP-62, > 100 µM (inactive); with NCI-H460 it was 49.8 µM (inactive); in the test with SK-MEL-28 it was > 100 µM (inactive); with CCRF-CEM, 7.85 µM (inactive). In addition, the GI50 with M14 is > 100 µM (inactive); in the test on NCI-H522 it was 67.5 µM (inactive); with CAKI-1, > 100 µM (inactive); in the test on MDA-MB-231, > 100 µM (inactive); with KM12, > 100 µM (inactive); in the test with HT-29, 91.6 µM (inactive). The GI50 with HL-60 was 26.8 µM (inactive).

For the molecule `Cc1cccc2c1Oc1cc(Cl)ccc1C2NC(=O)CCN1CCOCC1` (stereo unspecified), the GI50 with SN12C is > 100 µM (inactive); in the test on SF-539 it was > 100 µM (inactive); in the test with IGROV-1, > 100 µM (inactive); in the test with MOLT-4 it was 49.4 µM (inactive); in the test with OVCAR-8, > 100 µM (inactive); with HOP-92, 18.1 µM (inactive). Also, the GI50 in the test on COLO 205, in the test with 786-0, with HOP-62, with NCI-H460, in the test on SK-MEL-28 and in the test on CCRF-CEM was > 100 µM (inactive) in each case. The GI50 in the test on M14 is > 100 µM (inactive); with NCI-H522, > 100 µM (inactive); in the test on MDA-MB-231, > 100 µM (inactive); in the test on KM12 it was > 100 µM (inactive); in the test on HT-29, 61.8 µM (inactive); with HL-60 it was 32.2 µM (inactive).

These data come from ChEMBL document CHEMBL1201862, “PubChem BioAssay data set” (2004).
